Reference: US20230012368A1 (Hoffmann-La Roche Inc., priority 2018, published 2023)
Counter-ions that a name gives are not always drawn.

These compounds were tested on Acinetobacter baumannii ATCC 17978 (assay: Antimicrobial susceptibility testing: 90% growth inhibitory concentration (IC90) determination). Settings: 90% growth inhibitory concentration; Acinetobacter baumannii ATCC17978; Iso-Sensitest broth, OD 600 nm over 16h; read-out: ATCC17978 IC90.
Type: cell-based
In short: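 Growth of the Acinetobacter baumannii strain was followed by optical density at 600 nm every 20 minutes for 16h at 35±2° C. Inoculum was ~5×10^(5) CFU/ml in Iso-Sensitest medium, with twofold compound dilutions (e.g. 50 to 0.097 μM final). The 90% inhibitory concentration was derived in log-phase growth.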

Row | Structure (SMILES) | IC90
1 | N#CCOc1ccc(-c2cnc3c(Nc4ccc(C(=O)NCCc5nnn[nH]5)c(Cl)c4)nccn23)c(F)c1F [Example 104, 2-chloro-4-[[3-[4-(cyanomethoxy)-2,3-difluoro-phenyl]imidazo[1,2-a]pyrazin-8-yl]amino]-N-[2-(1H-tetrazol-5-yl)ethyl]benzamide] | 1.1 µM
2 | CCc1cc(Nc2nccn3c(-c4ccc(OC)c(F)c4F)cnc23)ccc1C(=O)N[C@H](CN)CO [Example 539, N-[(1R)-1-(aminomethyl)-2-hydroxy-ethyl]-4-[[3-(2,3-difluoro-4-methoxy-phenyl)imidazo[1,2-a]pyrazin-8-yl]amino]-2-ethyl-benzamide; formic acid] | 0.41 µM

Same assay, conditions: Acinetobacter baumannii, ATCC17978, 16 h, 90% growth inhibitory concentration; Acinetobacter baumannii ATCC17978; Iso-Sensitest broth, OD 600 nm over 16h; read-out: ATCC17978 IC90

Row | Structure (SMILES) | IC90
3 | COc1ccc(-c2cnc3c(Nc4ccc5c(c4)CCCNC5=O)nccn23)cc1F [Example 390, 7-[[3-(3-fluoro-4-methoxy-phenyl)imidazo[1,2-a]pyrazin-8-yl]amino]-2,3,4,5-tetrahydro-2-benzazepin-1-one hydrochloride] | 0.22 µM
4 | CCc1cc(Nc2nccn3c(-c4ccc(OC)c(F)c4F)cnc23)ccc1C(=O)NCC1CCCN1 (stereo not shown) [Example 527, 4-((3-(2,3-difluoro-4-methoxyphenyl)imidazo[1,2-a]pyrazin-8-yl)amino)-2-ethyl-N-(pyrrolidin-2-ylmethyl)benzamide hydrochloride] | 0.48 µM
5 | CCc1cc(Nc2nccn3c(-c4ccc(Oc5cnn[nH]5)c(F)c4F)cnc23)ccc1C(=O)NCC1CCN(CC2CCNC2)CC1 (stereo not shown) [Example 557, 4-[[3-[2,3-difluoro-4-(1#H!- triazol-5-yloxy)phenyl]imidazo[1,2-a]pyrazin-8-yl]amino]-2-ethyl-#N!-[[1-(pyrrolidin-3-ylmethyl)piperidin-4-yl]methyl]benzamide;formic acid] | 0.48 µM
6 | CCc1cc(Nc2nccn3c(-c4ccc(OC)c(F)c4F)cnc23)ccc1C(=O)N[C@@H](C)CNC(=N)C(C)C [Example 503, 4-[[3-(2,3-difluoro-4-methoxyphenyl)imidazo[1,2-a]pyrazin-8-yl]amino]-2-ethyl-#N!-[(2#S!)-1-(2-methylpropanimidoylamino)propan-2-yl]benzamide] | 0.45 µM
7 | N#CCOc1ccc(-c2cnc3c(Nc4ccc(C(=O)NCC5CCNCC5)c(Cl)c4)nccn23)c(F)c1F [Example 79, 2-chloro-4-[[3-[4-(cyanomethoxy)-2,3-difluoro-phenyl]imidazo[1,2-a]pyrazin-8-yl]amino]-N-(4-piperidylmethyl) benzamide] | 0.09 µM
8 | CCc1cc(Nc2nccn3c(-c4ccc(OC)c(F)c4F)cnc23)ccc1C(=O)NCC(=O)NCCN(C)C [Example 434, 4-[[3-(2,3-difluoro-4-methoxy-phenyl)imidazo[1,2-a]pyrazin-8-yl]amino]-N-[2-[2-(dimethylamino)ethylamino]-2-oxo-ethyl]-2-ethyl-benzamide; formic acid] | 0.25 µM
9 | O=C(NCC1CCNCC1)c1ccc(Nc2nccn3c(-c4ccc(OC(F)F)c(F)c4F)cnc23)cc1Cl [Example 43, 2-chloro-4-[[3-[4-(difluoromethoxy)-2,3-difluoro-phenyl]imidazo[1,2-a]pyrazin-8-yl]amino]-N-(4-piperidylmethyl) benzamide; 2,2,2-trifluoroacetic acid] | 0.22 µM
10 | CCc1cc(Nc2nccn3c(-c4ccc(OC)c(F)c4F)cnc23)ccc1C(=O)NCCN1CCNCC1 [Example 323, 4-[[3-(2,3-difluoro-4-methoxyphenyl)imidazo[1,2-a]pyrazin-8-yl]amino]-2-ethyl-N-(2-piperazin-1-ylethyl)benzamide] | 0.06 µM
11 | N#CCOc1ccc(-c2cnc3c(Nc4ccc(C(=O)NCCc5ccncc5)c(Cl)c4)nccn23)c(F)c1F [Example 75, 2-chloro-4-((3-(4-(cyanomethoxy)-2,3-difluorophenyl)imidazo [1,2-a]pyrazin-8-yl)amino)-N-(2-(pyridin-4-yl)ethyl)benzamide] | 0.09 µM
12 | Cc1cc(Nc2nccn3c(-c4ccc(OC(F)F)cc4)cnc23)ccc1C(=O)NCCCCN1CCOCC1 [Example 197, 4-[[3-[4-(difluoromethoxy)phenyl]im-idazo[1,2-a]pyrazin-8-yl]amino]-2-methyl-N-(4-morpholin-4-ylbutyl)benzamide] | 0.4 µM
13 | COc1ccc(-c2cnc3c(Nc4cc(F)c(C(=O)NCCCN)c(F)c4)nccn23)c(F)c1F [Example 435, N-(3-aminopropyl)-4-((3-(2,3-difluoro-4-methoxyphenyl)imidazo[1,2-a]pyrazin-8-yl)amino)-2,6-difluorobenzamide] | 0.73 µM
14 | CCc1cc(Nc2nccn3c(-c4ccc(Oc5nccs5)c(F)c4F)cnc23)ccc1C(=O)NCCCN [Example 482, #N!-(3-aminopropyl)-4-[[3-[2,3-difluoro-4-(1,3-thiazol-2-yloxy)phenyl]imidazo[1,2-a]pyrazin-8-yl]amino]-2-ethylbenzamide] | 0.88 µM
15 | COc1ccc(-c2cnc3c(Nc4ccc(C(=O)NCCCNC(=O)CC[C@H](N)C(=O)O)c(C)c4)nccn23)c(F)c1F [Example 355, (2S)-2-amino-5-[3-[[4-[[3-(2,3-difluoro-4-methoxyphenyl)imidazo[1,2-a]pyrazin-8-yl]amino]-2-methylbenzoyl]amino]propyl-amino]-5-oxopentanoic acid] | 2.5 µM
16 | CCc1cc(Nc2nccn3c(-c4ccc(OC(F)F)c(F)c4F)cnc23)ccc1C(=O)NCC1CCN(CC2CNC2)CC1 [Example 547, N-((1-(azetidin-3-ylmethyl)piperidin-4-yl)methyl)-4-((3-(4-(difluoromethoxy)-2,3-difluorophenyl)imidazo[1,2-a]pyrazin-8-yl)amino)-2-ethylbenzamide formate] | 0.16 µM
17 | COc1ccc(-c2cnc3c(Nc4ccc(C(=O)NCCCCCCN)c(C)c4)nccn23)c(F)c1F [Example 493, N-(6-aminohexyl)-4-((3-(2,3-difluoro-4-methoxyphenyl)imidazo[1,2-a]pyrazin-8-yl)amino)-2-methylbenzamide hydrochloride] | 0.035 µM
18 | COc1ccc(-c2cnc3c(Nc4ccc(C(=O)N(C)CCCC5OCC(N)CO5)c(C)c4)nccn23)cc1F (stereo not shown) [Example 192, N-[3-(5-amino-1,3-dioxan-2-yl)propyl]-4-[[3-(3-fluoro-4-methoxyphenyl)imidazo[1,2-a]pyrazin-8-yl]amino]-N,2-dimethylbenzamide] | 0.34 µM
19 | COc1ccc(-c2cnc3c(Nc4ccc(C(=O)N(C)C)c(C)c4)nccn23)c(F)c1F [Example 1, 4-((3-(2,3-difluoro-4-methoxyphenyl)imidazo[1,2-a]pyrazin-8-yl)amino)-N,N,2-trimethylbenzamide] | 0.12 µM
20 | CN(CCN1CCNCC1)C(=O)c1ccc(Nc2nccn3c(-c4ccc(OC(F)F)cc4)cnc23)cc1Cl [Example 203, 2-chloro-4-[[3-[4-(difluoromethoxy)phenyl]im-idazo[1,2-a]pyrazin-8-yl]amino]-N-methyl-N-(2-piperazin-1-ylethyl)benzamide; hydrochlo-ride] | 0.46 µM
21 | CCc1cc(Nc2nccn3c(-c4ccc(Oc5ccncn5)c(F)c4F)cnc23)ccc1C(=O)N[C@@H](C)CNC(=O)[C@@H](N)CCNC(=N)N [Example 457, N-[(1S)-2-[[(2S)-2-amino-4-guanidino-butanoyl]amino]-1-methyl-ethyl]-4-[[3-(2,3-difluoro-4-pyrimidin-4-yloxy-phenyl)imidazo[1,2-a]pyrazin-8-yl]amino]-2-ethyl-benzamide; formic acid] | 0.98 µM
22 | CCc1cc(Nc2nccn3c(-c4ccc(OC(F)F)c(F)c4F)cnc23)ccc1C(=O)NCCNC(=O)[C@H](N)CCCNC(=N)N [Example 132, N-[2-[[(2R)-2-amino-5-guanidino-pentanoyl]amino]ethyl]-4-[[3-[4-(difluoromethoxy)-2,3-difluoro-phenyl]imidazo[1,2-a]pyrazin-8-yl]amino]-2-ethyl-benzamide formate] | 0.23 µM
23 | COc1ccc(-c2cnc3c(Nc4ccc(C(=O)NCCCC[C@H](N)C(=O)O)c(C)c4)nccn23)c(F)c1F [Example 349, (2S)-2-amino-6-[[4-[[3-(2,3-difluoro-4-methoxyphenyl)imidazo[1,2-a]pyrazin-8-yl]amino]-2-methylbenzoyl]amino]hexa-noic acid;2,2,2-trifluoroacetic acid] | 1.1 µM
24 | CCc1cc(Nc2nccn3c(-c4ccc(OC)c(F)c4F)cnc23)ccc1C(=O)N[C@H](C)CCNC(=O)[C@@H](N)CCCNC(=N)N [Example 375, N-[(2R)-4-[[(2S)-2-amino-5-carbamimidamidopentanoyl]amino]butan-2-yl]-4-[[3-(2,3-difluoro-4-methoxyphenyl)imidazo[1,2-a]pyrazin-8-yl]amino]-2-ethylbenzamide] | 0.19 µM
25 | Cc1cc(Nc2nccn3c(-c4ccc(OC(F)F)cc4)cnc23)ccc1C(=O)NCCN1C[C@@H](C)O[C@@H](C)C1 [Example 278, 4-[[3-[4-(difluoromethoxy)phenyl]im-idazo[1,2-a]pyrazin-8-yl]amino]-2-methyl-N-[2-[rac-(2R,6S)-2,6-dimethylmorpholin-4-yl]ethyl]benzamide] | 1.4 µM
26 | CCc1cc(Nc2nccn3c(-c4ccc(OC(F)F)c(F)c4F)cnc23)ccc1C(=O)NCCCCCN [Example 96, N-(5-aminopentyl)-4-((3-(4-(difluoromethoxy)-2,3-difluorophenyl)imidazo [1,2-a]pyrazin-8-yl)amino)-2-ethylbenzamide hydrochloride] | 0.07 µM
27 | C=Cc1cc(Nc2nccn3c(-c4ccc(OC(F)F)cc4)cnc23)ccc1C(=O)NC [Example 92, 4-((3-(4-(difluoromethoxy)phenyl)imidazo[1,2-a]pyrazin-8-yl)amino)-N-methyl-2-vinylbenzamide] | 0.61 µM
28 | COc1ccc(-c2cnc3c(Nc4ccc(C(=O)NCCN)c(C)c4)nccn23)cc1 [Example 31, N-(2-aminoethyl)-4-((3-(4-methoxyphenyl)imidazo [1,2-a]pyrazin-8-yl)amino)-2-methylbenzamide] | 2.9 µM
